In patent US20260234188A1, “CHEMOKINE-BINDING PEPTIDES” (Oxford University Innovation Limited, priority 2022, published 2026):
“Also recorded” adds a separate entry of the source.

system: panel of up to 42 human chemokines; assay: Phage-display next generation sequencing screen of overlapping hexadecapeptide libraries, chemokines displayed on streptavidin beads; assay type: binding; settings: log2E greater than 5, chemokines named by first part of UniProt Entry Name
Description: FIG. 1. Exemplar results from phage display screens. Phage-display libraries were constructed and analysed as described in (McLaughlin, 2013) (Tonikian, 2007). […] FIG. 1A, CC chemokines against evasin A library. FIG. 1B, CXC chemokines against the evasin B library. FIG. 1C, CXC and CX3C chemokines against the viral chemokine binding protein library. FIG. 1D, CXC chemokines against the chemokine library. […] Identified hexadecapeptides were mapped to the position in the originating protein (x-axis) and to fold enrichment (log 2 E, left y-axis). Regions of interest (ROI) were defined where the cumulative residue log 2 E, (clog 2 E:r, right y-axis) exceeds the 95% upper confidence interval of the median clog 2 E:r for the entire protein (indicated as a horizontal dotted line in each panel). Proteins are referred to by their UniProt ID.
Hexadecapeptides were identified using a phage-display next generation sequencing approach (McLaughlin, 2013). Libraries containing a total of 55662 overlapping peptides (from the tick chemokine binding proteins shown in Tables 3A and 3B, the viral chemokine binding proteins shown in Table 3C, the human chemokines shown in Table 3 E, and the human/viral chemokine receptors and other chemokine-binding proteins shown in Table 3D) were first constructed, and then screened against a panel of up to 42 human chemokines, as shown in Table 3F.

Substance | Chemokines Bound
CR5172 (FGVVTSVITWVVAVFA) | CCL1, CCL18, and CXL10, SDF1, and IL8
CR5175: chemokine binding peptide of Table 5A used in FIG. 5 combinations (FGVWLMSIVGTFLNML) | CCL17, CCL22, and IL8
CR5236 (FIFVIGMIANSVVVWV) | CCL19, CCL28,; also recorded: CXL11, SDF1,; also recorded: CXL13, IL8
CR5242 (FIGFFGSIFFITVISI) | CCL17, CCL18,; also recorded: CCL20, X3CL1,; also recorded: CXL13
CR5243 (FIGFFSGIFFIILLTI) | CCL17, CCL18,; also recorded: CCL19, CCL20,; also recorded: CCL22, CXL11,; also recorded: SDF1, CXL14
CR5245 (FIGIKIVYCFLWGIFP) | CCL1, CCL15,; also recorded: CCL17, CCL18,; also recorded: CCL19, CCL20,; also recorded: CCL22, CCL25,; also recorded: CCL28, X3CL1,; also recorded: CXL10, CXL11,; also recorded: SDF1, CXL13,; also recorded: CXL14, IL8
CR5246 (FIGIKIVYSFLWGIFP) | CCL20, CCL22,; also recorded: X3CL1, CXL10,; also recorded: CXL11
CR5262 (FILALVGNTLALWLFI) | CCL22, CCL28,; also recorded: SDF1, IL8
CR5277 (FILYQFELFGFTLIFF) | CCL17, CCL22, and CCL25, CCL28, and CXL10, CXL11, and SDF1
CR5349 (FIYVLMFLCNAIGNSL) | CCL19, CCL20,; also recorded: CXL10
CR5416 (FLAFLRSGYDMWLMLV) | CCL1, CCL11, and CCL17, CCL18, and CCL2, CCL20, and CXL11, CXL13, and IL8
CR5475 (FLFHLAVADLLLVFIL) | CCL20, CCL22,; also recorded: CCL28, CXL10,; also recorded: CXL11, SDF1,; also recorded: CXL14
CR5511 (FLGILGNGLVIIIATF) | CCL20, CCL22, and SDF1
CR5518 (FLGLMASVWTHLGMAL) | CCL2, CXL10,; also recorded: CXL11
CR5519 (FLGLMCSVWTHLGMAL) | CCL1, CCL18,; also recorded: CCL2, CCL22,

same assay, conditions: log2E greater than 5, chemokines named by first part of UniProt Entry Name, peptides binding complement C5a (control) excluded

Substance | Chemokines Bound
CR5519 (FLGLMCSVWTHLGMAL) | CCL28, X3CL1,; also recorded: CXL10, CXL11,; also recorded: SDF1, CXL13,; also recorded: CXL14, IL8
CR5598 (FLLSLGIILFSYVEIL) | CCL18, CCL19, and CXL10, CXL11, and SDF1, CXL14, and IL8
CR5669 (FLSIFYSVIFAIGLVG) | CCL17, CCL18,; also recorded: CCL19, CCL20,; also recorded: CCL28, X3CL1,; also recorded: CXL10, CXL14
CR5737 (FLVVVYSIVSFLGILG) | CCL17, CCL18,; also recorded: CCL19, CCL2,; also recorded: CCL20, CCL22,; also recorded: CCL25, CCL28,; also recorded: X3CL1, CXL10,; also recorded: CXL13, CXL14
CR5738 (FLWGIFPTVIFSYFYV) | CCL18, CCL22, and CCL8, X3CL1, and CXL10, CXL11, and IL8
CR5768 (FMFVLSVLGNLTVVCV) | CCL19, CCL22,; also recorded: CCL25
CR5775 (FMIFAYTFIVKTLVQA) | CCL17, CCL18, and CCL28, X3CL1, and CXL11, SDF1, and CXL13, CXL14, and IL8
CR5776 (FMIFCYTFIVKTLVQA) | CCL1, CCL17,; also recorded: CCL19, CCL20,; also recorded: SDF1, CXL13
CR6041 (FSAILLYIDDFSAYFS) | CCL17, CCL18,; also recorded: X3CL1, IL8
CR6044 (FSALVTLITSLFGSIF) | CCL2, X3CL1,; also recorded: CXL10, IL8
CR6068 (FSFFYVIFSKALHDVT) | CCL1, CCL18, and CCL22, CCL28, and SDF1
CR6097 (FSIFWWIFAVIIAIPH) | CXL10, SDF1,; also recorded: IL8, CCL1,; also recorded: CCL15, CCL22,; also recorded: CCL5, X3CL1,; also recorded: CXL11, CXL13
CR6098 (FSIIAVFYFLLARAIS) | CCL17, CCL20,; also recorded: CCL22, CXL10,; also recorded: CXL11, CXL13,; also recorded: CXL14, IL8
CR6163 (FSRAIDIIYSLITSSN) | CCL17, CCL18,; also recorded: CCL2, CCL22,; also recorded: CCL28, X3CL1,; also recorded: CXL14
CR6212 (FSTFSGMLVYILLLPV) | CXL11, CXL13, and IL8
CR6269 (FTGMPPADEDYSPCML) | CCL11, CCL17,; also recorded: CCL18, CCL19,; also recorded: CCL20
CR6324 (FTWNLVLSQFFSILAT) | CCL11, CCL28,; also recorded: X3CL1, CXL11,; also recorded: CXL13
CR6489 (FWAVDAVANWYFGNFL) | CCL17, CCL18, and CCL22, CCL28, and CXL10, CXL14, and IL8
CR6515 (FWTPYNIVLFLETLVE) | CCL20, CCL22, and CXL10, CXL13, and IL8
CR6520 (FWWIFAVIIAIPHFMV) | CXL10, CXL11

Substance | Chemokines Bound
CR6558 (FYISLFAGVSFLINLS) | CCL17, CCL18,; also recorded: CCL19, CCL20,; also recorded: CCL22, CCL25,; also recorded: CCL28, X3CL1,; also recorded: CXL10, CXL11,; also recorded: SDF1, CXL13,; also recorded: CXL14, IL8
CR6604 (FYVAMFASLCFITEIA) | CXL10, CXL11, and SDF1, CXL13, and IL8
CR6605 (FYVAMFASLSFITEIA) | CXL10, CXL11, and IL8
CR6611 (FYVITLFASDFVLMWC) | CCL22, CCL25,; also recorded: X3CL1, CXL13
CR6623 (FYYIGFYSSMFFITLM) | CCL1, CCL17,; also recorded: CCL18, CCL19,; also recorded: CCL20, CCL22,; also recorded: CCL28, X3CL1,; also recorded: CXL10, CXL11,; also recorded: SDF1, CXL14
CR6624 (FYYLYVYLDIFSVVAV) | CCL15, CCL17, and CCL18, CCL19, and CCL20, CCL22, and CCL25, CCL28, and X3CL1, CXL10, and CXL11, SDF1, and CXL13, CXL14, and IL8
CR6746 (GDFLAKLLNMIFSISL) | CCL20, CCL25,; also recorded: CCL28
CR6836 (GFFIPLMFMIFSYTFI) | CCL22, CXL14, and IL8
CR7000 (GIFFIILLTIDRYLAV) | CCL17, X3CL1,; also recorded: CXL10
CR7024 (GIITSVLAWVTAILAT) | CCL2, CCL22,; also recorded: CCL28, CXL10,; also recorded: CXL11, SDF1,; also recorded: CXL13, IL8
CR7344 (GMGPGPWMNILWAWFI) | CCL1, CCL11,; also recorded: CCL17, CCL18,; also recorded: CCL19, CCL2,; also recorded: CCL20, CCL22,; also recorded: CCL25, CCL8,; also recorded: X3CL1, CXL10,; also recorded: CXL11, SDF1,; also recorded: CXL14, IL8
CR7367 (GMPPADEDYSPCMLET) | CCL11, CCL18,; also recorded: CCL19, CCL20
CR7477 (GPGPWMNILWAWFIFW) | CCL17, CCL18, and CCL19, CCL20, and CCL25, CXL13, and IL8
CR7642 (GSMLLSVLFTLYVSTL) | CCL25, CXL10,; also recorded: CXL11, CXL13
CR7666 (GSVSLVNLLTIIGCLW) | CCL17, CCL20,; also recorded: CCL25
CR7814 (GVVTSVITWLVAVFAS) | CCL11, CCL2, and CCL22, CCL8, and IL8
CR7815 (GVVTSVITWVVAVFAS) | CCL1, CCL15,; also recorded: CCL2, CCL20,; also recorded: CCL22, CCL25,; also recorded: CCL28, CCL8,; also recorded: CXL10, CXL13
CR7818 (GVWLMAIVGTFLNMLV) | CCL1, CCL18,; also recorded: CXL11, SDF1,; also recorded: CXL14
CR7819 (GVWLMAIVGTFLNVLV) | CCL17, CCL18, and CCL2, CCL20, and CCL22, CXL11, and SDF1, CXL13, and IL8
CR7823 (GVWLMSIVGTFLNVLV) | CCL11, CCL17, and CCL18, CCL2, and CCL8, CXL10, and CXL11, CXL14, and IL8

Substance | Chemokines Bound
CR7854 (GWVFIFSSIQLATVVF) | CCL1, CCL15, and CCL17, CCL19, and CCL20, CCL22, and CCL28, X3CL1, and CXL10, CXL11, and SDF1, CXL13, and IL8
CR7856 (GWVFIFSSIQLCTVVF) | CCL1, CCL19, and CCL20, CCL25, and CXL10, SDF1, and IL8
CR7860 (GWVLGDFLCKLLNMIF) | CCL1, CCL17, and CCL18, CCL19, and CCL2, CCL20, and CCL22, CCL28, and CCL8, CXL10, and SDF1, CXL13, and IL8
CR8126 (HIGYFGGIFFIILLTI) | CCL18, CCL22, and CCL25, CXL11, and IL8
CR8251 (HNKTLSFISLLILSFL) | CCL2, X3CL1, and IL8
CR8339 (HRTVKLIFAIVVAYFL) | CCL28, X3CL1,; also recorded: CXL11, SDF1,; also recorded: CXL14
CR8427 (HTLRMTIFCLVLPLLV) | CCL28, CXL10, and CXL11, SDF1, and IL8
CR8437 (HTVLLSWKVLLTMVWG) | CCL1, CCL18,; also recorded: CCL19, CCL20,; also recorded: CXL13
CR8496 (HWGWVLGDFLCKLLNM) | CCL11, CCL17, and CCL18, CCL19, and CCL20, CCL22, and CCL25, CCL28, and X3CL1, CXL10, and CXL11, SDF1, and CXL13, CXL14, and IL8
CR8546 (IAAFSWFMLSLPLLFL) | CCL22, CCL28,; also recorded: CXL14
CR8655 (IAVFGLLGNILVVITF) | CCL17, CCL22,; also recorded: CCL25, IL8
CR8675 (IAYSLIAVFGLLGNIL) | CCL17, CCL22,; also recorded: CCL25, CCL28,; also recorded: CXL11
CR8677 (IAYSLISVFGLLGNIL) | CCL2, CXL10,; also recorded: CXL13
CR8784 (IFAIVVAYFLSWGPYN) | CCL1, CCL15, and CCL17, CCL18, and CCL2, CCL20, and CCL22, CCL25, and CCL28, X3CL1, and CXL10, CXL11, and SDF1, CXL14, and IL8
CR8812 (IFFIILLTIDRYLAIV) | CCL18, CCL19,; also recorded: CCL22, CXL14
CR8813 (IFFIILLTIDRYLAVV) | CCL17, CCL18,; also recorded: CCL20, CCL25,; also recorded: CCL28, CXL10,; also recorded: CXL11, CXL13,; also recorded: CXL14, IL8
CR8966 (IFWWIFAVIIAIPHFM) | IL8
CR9087 (IIALVVWGLSVIISSS) | CCL1, CCL17,; also recorded: CCL18, CCL19,; also recorded: CCL2, CCL20,; also recorded: CCL22, CCL25,; also recorded: CCL28, X3CL1,; also recorded: CXL10, CXL11,; also recorded: SDF1, CXL13,; also recorded: CXL14, IL8
